The values below come from patent US4216214A, “4-Tert. butyl-3'-chlorodiphenylamine derivatives, their preparation and their application as anti-histaminic drugs” (PRODESIN (Productos Esteve Internacional S.A.), priority 1977, dated 1980).

Structures are written as SMILES. pIC50: −log10 of the molar value. Several values for one entry are separate records, joined by “and”; a condition that tells them apart may be missing. Equal values may be shown once.

Data set [1] has as its system "H2" histamine receptor sites. As to the kind of experiment: Gastric anti-secretory action, secretion stimulated by histamine (Ghosh and Schild method). Format: in vivo, Sprague-Dawley rats. The following applies: intravenous dose inhibiting by 50% the gastric secretion caused by histamine 2.5 μmoles/kg i.v., rats. How it is done: (§1) Sprague-Dawley rats having a body weight of from 300 to 350 g are used for studying the antagonistic action of the "H2 " histamine receptor sites by the method described by Ghosh and Schild (1958). The gastric secretion is stimulated by intravenous injection of constant doses of histamine (2.5 μmoles/kg) or of carbachol (5 nmoles /kg). The gastric anti-secretory action is then determined by the intravenous dose (in μmole/kg) of derivative which inhibits by 50% the effect caused by the histamine or carbachol (DI-50).

Data set [2] has as its system gastric secretion stimulated by carbachol. As to the kind of experiment: Gastric anti-secretory action, secretion stimulated by carbachol (Ghosh and Schild method). Format: in vivo, Sprague-Dawley rats. The following applies: Rattus norvegicus; intravenous dose inhibiting by 50% the gastric secretion caused by carbachol 5 nmoles/kg i.v., rats; read-out: DI-50 with carbachol. How it is done:
as §1

Data set [3] relates to Ileum of Guinea Pig (agonist Histamine). As to the kind of experiment: Test on isolated organ: contraction by histamine. The data set is classed as cell-based. The following applies: Cavia porcellus, agonist Histamine 0.05 μ, read-out: Cl-50 of products, Histamine. How it is done: (§2) During this test, the products are added to the bath in an aqueous solution. The interaction of the various products is determined with different […]: Histamine, acetyl choline, serotonine and norepinephrine. The […] are employed in constant doses to produce contractions in the various biological reactants described below in table III.
(§3) The micromolar concentration which inhibits 50% of the response produced by the constant concentration of each agonist (Cl-50) is determined for each derivative.

The test system of data set [4] is Ileum of Guinea Pig (agonist Acetyl Choline). The data set is described as follows: Test on isolated organ: contraction by acetyl choline. The following applies: Cavia porcellus, agonist Acetyl Choline 0.05 μ, read-out: Cl-50 of products, Acetyl Choline. The data set is classed as cell-based. The procedure: as §2, §3
Data set [5] relates to Uterus of Rat (agonist Seratonine). As to the kind of experiment: Test on isolated organ: contraction by serotonine. Format: cell-based. Conditions: agonist Seratonine 0.10 μ, read-out: Cl-50 of products, Seratonine. The procedure:
as §2, §3

Data set [6] deals with Deferent of Rat (agonist Norepinephrine). As to the kind of experiment: Test on isolated organ: contraction by norepinephrine. Format: cell-based. The following applies: agonist Norepinephrine 1.0 μ, read-out: Cl-50 of products, Norepinephrine. How it is done: as §2, §3
A short description of the next data set: Acute toxicity in mice. The following applies: mouse, in vivo. The procedure:
The lethal dose 50 (LD-50) of various derivatives administered orally and intra-peritoneally to mice weighing between 20 and 25 g was determined.

A short description of another data set: Acute toxicity in rats. Conditions: rat, in vivo; Sprague-Dawley rats 150 to 180 g, oral; read-out: LD-50 by the oral route in rats. The procedure: The acute toxicity was determined by oral means in Sprague-Dawley rats having a body weight of 150 to 180 g. The LD-50 of N-(2-piperidinoethyl)-tertiary-butyl-3'-chlorodiphenylamine hydrochloride by the oral route in rats is above 3500 mg/kg.

Data set [7] can be described thus: Sub-acute toxicity by oral means with rats. Conditions: rat, in vivo. The procedure:
Three batches of Sprague-Dawley rats each consisting of six males and six females were used. N-(2-piperidinoethyl)-4-tertiary-butyl-3'-chlorodiphenylamine hydrochloride was administered orally to the first two batches in doses of 200 mg/kg and 50 mg/kg respectively. The third batch received a zero dose (distilled water) and was thus used as a control.

The mark [8] stands for this setting: ip, mice 20-25 g, intra-peritoneal, read-out: LD-50 i.p.
[9] abbreviates: mice 20-25 g, oral, read-out: LD-50 Orally.

On to `CC(C)(C)c1ccc(N(CCN2CCCCC2)c2cccc(Cl)c2)cc1` [Example 1, N-(2-piperidino-ethyl)-4-tertiary butyl-3'-chlorodiphenylamine], for which, in data set [1], the DI-50 with histamine worked out at 1.0 µmol/kg. Further, the ED50 in data set [2] was greater than 20 µmol/kg. The pIC50 is 5.65 in [3], 4.59 in data set [4], 6.42 in [5] and 4.61 in data set [6]. The LD50 in “Acute toxicity in mice” (ip, read-out: LD-50 i.p.) is 1000 mg/kg and 2450 µmol/kg; in the data set “Acute toxicity in mice” (po, read-out: LD-50 Orally), > 3500 mg/kg and > 8500 µmol/kg; in the data set “Acute toxicity in rats”, greater than 3500 mg/kg. The mortality in data set [7] (50 mg/kg) is 8.33%; in data set [7] (200 mg/kg) it was 33%.
Turning to `CCN(CC)CCN(c1ccc(C(C)(C)C)cc1)c1cccc(Cl)c1` [Example 3, N(2-diethylaminoethyl)-4-tert.butyl 3'-chlorodiphenylamine], the DI-50 with histamine in data set [1] was 6.0 µmol/kg. In addition, the ED50 in data set [2] was greater than 20 µmol/kg. Also, the pIC50 in data set [3] is 4.56; in [4], 4.60; in data set [5], 5.59; in data set [6], 4.60. The LD50 in “Acute toxicity in mice” (setting [8]) was 395 mg/kg and 1000 µmol/kg; in the data set “Acute toxicity in mice” (setting [9]), > 6000 mg/kg and > 15000 µmol/kg.
`CC(C)(C)c1ccc(N(CCN2CCCC2)c2cccc(Cl)c2)cc1` [Example 4, N(2-pyrrolidinoethyl)-4-tert.butyl 3'-chlorodiphenylamine] gave a DI-50 with histamine in [1] of 2.2 µmol/kg. In addition, the ED50 in data set [2] stood at 20 µmol/kg. Also, the pIC50 was 4.70 in data set [3], 4.60 in data set [4], 7.30 in data set [5] and 4.60 in [6]. Also, the LD50 in the data set “Acute toxicity in mice” (setting [8]) was 155 mg/kg and 390 µmol/kg; in “Acute toxicity in mice” (setting [9]) it was 3000 mg/kg and 7620 µmol/kg.
